Experimental data reported in patent US20100160454A1, “ANTIMICROBIAL AGENTS, COMPOSITIONS AND PRODUCTS CONTAINING THE SAME, AND METHODS OF USING THE COMPOSITIONS AND PRODUCTS” (Eastman Chemical Company, priority 2008, published 2010).

Legend:
Format in all cases: cell-based
[1] = system: Trichophyton rubrum (ATCC 10218); assay: Challenge testing against pathogenic fungi, growth rating in broth tubes; set-up: key: 0: No visible growth; 1: Some growth in tube; 2: Moderate growth in tube; 3: Good growth in tube; 4: Extreme growth in tube
Description: (§1) Both Microsporum canis and Trichophyton rubrum were grown on Sabouraud dextrose broth, while Malassezia fufur was grown in Sabouraud dextrose broth supplemented with 2% (v/v) of olive oil and 0.2% (v/v) of Tween™ 80; incubation was at 22°±2° C. under continuous agitation by stirring for 10 days. The organisms were grown to a density of between 1.0×10^3 to 1.0×10^4 cfu/g. The actual inoculation cell density of these challenges were determined by diluting in sterile buffer water and (spread-plate method) plating for enumeration.
(§2) Challenge organisms were used to inoculate tubes of 1,4-CHDM-D90 test concentrations prepared in Sabouraud dextrose broth (or Sabouraud dextrose broth supplemented with olive oil-Tween™ 80 with M. furfur). The inoculations were in the amount of 1.5 mL aliquots of each culture with static incubation at 22±2° C. Subcultures were made at 3-, 14- and 30-day increments. All challenges were conducted in triplicate. In the case of M. canis, the growth response was assessed by the visual presence/absence of growth in the tubes; in the case of T. rubrum, a respiratory (redox) dye (0.2% w/v aqueous INT solution: 2-[4-iodophenyl)-3-4-nitrophenyl]-5-phenyl tetrazolium chloride) was added to the tubes, turning red if the organism was viable; and, finally, in the case of M. furfur, the growth response was assessed based upon pellicle formation in the tubes at the meniscus. The test formulations and challenge test results, as well as 30-day MICs (Minimum Inhibitory Concentration), are in Tables 7-9 for the three organisms using the following growth rating system:
(§3) • 0: No visible growth • 1: Some growth in tube • 2: Moderate growth in tube • 3: Good growth in tube • 4: Extreme growth in tube

[2] = system: Malassezia furfur (ATCC 96809); assay: as above; set-up: key: 0: No visible growth; 1: Some growth in tube; 2: Moderate growth in tube; 3: Good growth in tube; 4: Extreme growth in tube
Description: as §1, §2, §3

[3] = system: Candida albicans Wild type; assay: Microbiological challenge testing in BPW broth, graded subculture counts; details: C. albicans
Description: The microorganisms in the table below were used in challenge tests. They were either ATCC (American Type Culture Collection) or “wild type” as indicated. Wild type organisms were problematic organisms previously isolated from chemical products.
All of the microorganisms were grown in Tryptose Soy Broth (TSB), DIFCO™ available from Becton, Dickinson and Company, containing 1% dextrose. Candida albicans and Aspergillus niger, were incubated at 22° C.+/−2° C. for at least 96 hours. All bacteria were incubated at 35° C.+/−2° C. in a humidified incubator for at least 96 hours.
Candida albicans and Aspergillus niger were also grown on Sabouraud Dextrose Agar (SABD) at 22° C. for 7 to 14 days or until full sporulation was achieved.
The following procedure was followed to determine the amount of each challenge material (inoculum broth) needed to produce a 10^8 CFU/mL challenge, which is equivalent to a final test-sample microbial concentration of 10^5 to 10^6 CFU/mL (CFU=colony forming units).
Using a sterile pipette, 1 mL of the growth from each TSB culture was transferred into tubes of 9 mL buffered water (pH 7.2 phosphate buffer) and mixed thoroughly. This was repeated to make serial 1:10 dilutions. Then, 0.1 mL of each sample and dilution was inoculated onto agar plates to produce the equivalent of a further 1:10 dilution. (C. albicans and A. niger were inoculated onto SABD and bacteria were inoculated onto Plate Count Agar (PCA), DIFCO™ available from Becton, Dickinson and Company.) (The normal volume plated for most samples was 0.1 mL. Some samples that could be very low in micro-organisms (high dilutions) were plated using 0.5 mL of inoculum, in order to produce reproducible counts.) The samples were distributed on the plates using the spread-plate technique. The spread-plate technique is carried out by spreading the sample over the entire plate surface using a sterile spreading rod while rotating the plate with a rotary auto-plater. After the inoculum was absorbed completely by the agar, each plate was inverted and incubated (fungi at 22° C.+/−2° C. and bacteria at 35° C.+/−2° C.).
After incubation for at least 48 hours, colonies that had developed on the agar plates were counted (CFU) and recorded with the corresponding dilution. If counting had to be delayed temporarily, plates were refrigerated, preferably no more than 24 hours, until they could be counted. The number of CFU/mL was determined by multiplying the plate count by the dilution factor of the plate counted.
Turbidity in Nepholemetric Turbidity Units (NTU) was measured for each serial dilution using the HF-Micro 100 Model Turbidimeter. For each microorganism, the plate counts were compared to the turbidity readings.
On the day of challenge, the Candida albicans inoculum broth was poured through nonabsorbent sterile gauze and centrifuged. The […] was then diluted with buffered water (pH 7.2 phosphate buffer) until the desired turbidity was reached. Using a hemocytometer, a determination was made whether the challenge contained the desired concentration. Dilutions were made through 1.0×10^8 and three SABD spread plates were inoculated with 0.1 mL of each dilution. The plates were incubated for at least 48 hours and challenge counts were confirmed.
Control substrates (“broth alone”) were prepared for each microorganism separately in triplicate by adding 13.5 mL of Buffered Peptone Water broth (BPW) containing 1% dextrose to each 20-mL glass tube, then adding 1.5 mL challenge material to produce a final concentration at time zero of 10^5 to 10^6 CFU/mL and a total volume of 15 mL.

| Compound | T. rubrum growth rating, 3 day ([1]; 0.5% weight/volume) | T. rubrum growth rating, 14 day ([1]; 0.5% weight/volume) | T. rubrum growth rating, 30 day ([1]; 0.5% weight/volume) | T. rubrum growth rating, 3 day ([1]; 1.25% weight/volume) | T. rubrum growth rating, 14 day ([1]; 1.25% weight/volume) | T. rubrum growth rating, 30 day ([1]; 1.25% weight/volume) | T. rubrum growth rating, 3 day ([1]; 2.5% weight/volume) | T. rubrum growth rating, 14 day ([1]; 2.5% weight/volume) | T. rubrum growth rating, 30 day ([1]; 2.5% weight/volume) | T. rubrum growth rating, 3 day ([1]; 5.0% weight/volume) | T. rubrum growth rating, 14 day ([1]; 5.0% weight/volume) | T. rubrum growth rating, 30 day ([1]; 5.0% weight/volume) | M. furfur growth rating, 3 day ([2]; 0.5% weight/volume) | M. furfur growth rating, 14 day ([2]; 0.5% weight/volume) | M. furfur growth rating, 30 day ([2]; 0.5% weight/volume) | M. furfur growth rating, 3 day ([2]; 1.25% weight/volume) | M. furfur growth rating, 14 day ([2]; 1.25% weight/volume) | M. furfur growth rating, 30 day ([2]; 1.25% weight/volume) | M. furfur growth rating, 3 day ([2]; 2.5% weight/volume) | M. furfur growth rating, 14 day ([2]; 2.5% weight/volume) | also measured |
| --- | --- | --- | --- | --- | --- | --- | --- | --- | --- | --- | --- | --- | --- | --- | --- | --- | --- | --- | --- | --- | --- |
| O=C([O-])CN(CCN(CC(=O)[O-])CC(=O)O)CC(=O)O.[Na+].[Na+] [EDTA, Na2EDTA] | 1 | 0 | 0 | 0 | 0 | 0 | 1 | 0 | 0 | 1 | 0 | 0 | 0 | 0 | 0 | 0 | 0 | 0 | 0 | 0 | M. furfur growth rating, 30 day ([2]; 2.5% weight/volume): 0; M. furfur growth rating, 3 day ([2]; 5.0% weight/volume): 0; M. furfur growth rating, 14 day ([2]; 5.0% weight/volume): 0; M. furfur growth rating, 30 day ([2]; 5.0% weight/volume): 0; Grade ([3]; 0.5% (wt/vol), 3 day): 4 (1000 to 10,000 colonies countable (thus 10,000 CFU/mL to 100,000 CFU/mL)); Grade ([3]; 0.5% (wt/vol), 14 day): 5 (More than 10,000 colonies estimated (thus more than 100,000 CFU/mL)); Grade ([3]; 0.5% (wt/vol), 30 day): 5 (More than 10,000 colonies estimated (thus more than 100,000 CFU/mL)); Grade ([3]; 1.25% (wt/vol), 3 day): 4 (1000 to 10,000 colonies countable (thus 10,000 CFU/mL to 100,000 CFU/mL)); Grade ([3]; 1.25% (wt/vol), 14 day): 4 (1000 to 10,000 colonies countable (thus 10,000 CFU/mL to 100,000 CFU/mL)); Grade ([3]; 1.25% (wt/vol), 30 day): 4 (1000 to 10,000 colonies countable (thus 10,000 CFU/mL to 100,000 CFU/mL)); Grade ([3]; 2.5% (wt/vol), 3 day): 2 (52 to 100 colonies counted (thus 520 to 1000 CFU/mL)); Grade ([3]; 2.5% (wt/vol), 14 day): 2 (52 to 100 colonies counted (thus 520 to 1000 CFU/mL)); Grade ([3]; 2.5% (wt/vol), 30 day): 2 (52 to 100 colonies counted (thus 520 to 1000 CFU/mL)); Grade ([3]; 5.0% (wt/vol), 3 day): 1 (0 to 51 colonies counted (thus 10 to 510 CFU/mL based on 0.1-mL sample)); Grade ([3]; 5.0% (wt/vol), 14 day): 0; Grade ([3]; 5.0% (wt/vol), 30 day): 0 |
| CC(O)CO (stereo not drawn) [PG, propylene glycol] | 0 | 1 | 1 | 1 | 0 | 1 | 1 | 0 | 1 | 1 | 0 | 1 | 0 | 3 | 3 | 0 | 3 | 3 | 0 | 3 | M. furfur growth rating, 30 day ([2]; 2.5% weight/volume): 3; M. furfur growth rating, 3 day ([2]; 5.0% weight/volume): 0; M. furfur growth rating, 14 day ([2]; 5.0% weight/volume): 0; M. furfur growth rating, 30 day ([2]; 5.0% weight/volume): 3; Grade ([3]; 0.5% (wt/vol), 3 day): 5 (More than 10,000 colonies estimated (thus more than 100,000 CFU/mL)); Grade ([3]; 0.5% (wt/vol), 14 day): 5 (More than 10,000 colonies estimated (thus more than 100,000 CFU/mL)); Grade ([3]; 0.5% (wt/vol), 30 day): 5 (More than 10,000 colonies estimated (thus more than 100,000 CFU/mL)); Grade ([3]; 1.25% (wt/vol), 3 day): 5 (More than 10,000 colonies estimated (thus more than 100,000 CFU/mL)); Grade ([3]; 1.25% (wt/vol), 14 day): 5 (More than 10,000 colonies estimated (thus more than 100,000 CFU/mL)); Grade ([3]; 1.25% (wt/vol), 30 day): 5 (More than 10,000 colonies estimated (thus more than 100,000 CFU/mL)); Grade ([3]; 2.5% (wt/vol), 3 day): 4 (1000 to 10,000 colonies countable (thus 10,000 CFU/mL to 100,000 CFU/mL)); Grade ([3]; 2.5% (wt/vol), 14 day): 4 (1000 to 10,000 colonies countable (thus 10,000 CFU/mL to 100,000 CFU/mL)); Grade ([3]; 2.5% (wt/vol), 30 day): 4 (1000 to 10,000 colonies countable (thus 10,000 CFU/mL to 100,000 CFU/mL)); Grade ([3]; 5.0% (wt/vol), 3 day): 3 (100 to 1000 colonies (thus 1000 to 10,000 CFU/mL)); Grade ([3]; 5.0% (wt/vol), 14 day): 4 (1000 to 10,000 colonies countable (thus 10,000 CFU/mL to 100,000 CFU/mL)); Grade ([3]; 5.0% (wt/vol), 30 day): 4 (1000 to 10,000 colonies countable (thus 10,000 CFU/mL to 100,000 CFU/mL)) |
